From patent US7976863B2, “Biomedical devices with antimicrobial coatings” (priority 2002, dated 2011)
Ends that are not written are not given here.

How the values were obtained:
Type in all cases: cell-based
sheep red blood cells = experiment: Lysis of sheep red blood cells; details: 37° C. for 4 h, various concentrations
Experimental: FIG. 1 is a graph showing the % lysis sheep red blood cells relative to water for various peptides.
(§1) For in vitro cytotoxic testing, solutions of L-Melimine were prepared in PBS (500 μg/ml, 250 μg/ml, 125 μg/ml and 62.5 μg/ml). Solutions were then diluted 1:3 in tissue culture media (EMEM) and added to murine L929 cells for 48 hours. Cells are rinsed in saline then harvested using 0.25% trypsin for 3-5 minutes at ambient temperature. 1 ml of saline is then added to cells and trypsin mixture, a 500 μl aliquot is added to 19.5 ml of saline and counted in a coulter counter in triplicate. Results are compared to unperturbed cultures as well as positive (cyotoxic) controls. Results are expressed as percentage of non-viable cells (100-number of cells in sample/number of cells in unperturbed cells×100). In addition, the ability of the peptides to lyze sheep red blood cells was examined. The sheep red blood cells were washed and resuspended in PBS. Peptides at various concentrations were added to the red blood cells and incubated at 37° C. for 4 h. 100% lysis was obtained using distilled water and 0% lysis was obtained using PBS. Lysis was measured by measuring the amount of haemoglobin released into the PBS after centrifugation to remove whole red blood cells.

P. aeruginosa 6294 [1] = details: for minimum concentration required to inhibit bacterial growth, P.a 6284: MIC, peptide in solution, 18 hours at 35° C.
Experimental: (§2) To assess the effect of cationic proteins/peptides in solution against bacterial cells, Psudomonas aeruginosa 6294 and Staphylacoccus aureus 31 cells were grown as for 18 hours in Tryptone Soya Broth (TSB) at 35° C. The cells were then harvested by centrifugation and washed twice in phosphate buffered saline (PBS; NaCl 8 g/l; KCl 0.2 g/l; Na2HPO4 1.15 g/l; KH2PO4 0.2 g/l). The cells were then re-suspended to OD 0.1 at 660 nm in PBS. The cationic peptide was serially diluted from 1 mg/ml and dilutions were added to wells in a 96 well microtitre plate or into 5 ml disposable test-tubes. Controls were bacteria without peptides. Bacteria were incubated for 18 hours at 35° C. and turbidity was measured at 660 nm. A lack of turbidity in the test-tube corresponding to the peptide dilution was considered to be the minimum inhibitory concentration (“MIC”).

S. aureus 31 [2] = experiment: MIC in solution (tube/microtitre turbidity); details: MIC, peptide in solution, 18 hours at 35° C.
Experimental: as §2

P. aeruginosa 15442 [3] = experiment: MIC in solution (tube/microtitre turbidity); details: MIC, peptide in solution, 18 hours at 35° C.
P. aeruginosa 15442 [4] = experiment: Viable counts of bacteria adhered to peptide-adsorbed Etafilcon A lenses; details: 500 μg/lens adsorbed on Etafilcon A lens, vs uncoated control lens
Experimental: (§3) For conducting viable counts, Etafilcon A lenses were removed from the manufacturers vials, washed three times in 1 ml PBS, dried and then coated by pipetting 500 μg L-Melimine onto the contact lenses (melimine was dissolved in […] and air dried onto contact lenses) overnight at ambient temperature in a fume hood. Lenses were rehydrated in PBS for 10 minutes and 0.5 ml of 1×10^8 bacterial cells/ml, including gram-positive S. aureus and gram-negative P. aeruginosa were added to the lenses. After incubation at ambient temperature for either 10 min or 5 hours, the lenses were washed three times in PBS to remove non-adherent or loosely adherent bacteria. Lenses were then homogenized using tissue homogenizer and 1 ml PBS until lens disintegration (about 1-2 minutes). Serial dilutions were then made according to the technique of Miles and Misra and aliquots (20 μL) plated out on nutrient agar. After incubation overnight at 37° C., viable bacteria were determined and results expressed as colony forming units/mm^2 after calculation of the surface area of the lens (approximately 310 mm^2). The effects are calculated based upon comparison to adhesion control lens that was not coated with cationic protein/peptide before bacterial adhesion testing.
(§4) Stock solutions (50 mg/ml) were prepared containing the L-Protattin in distilled water. 500 μg of the stock solution was adsorbed to a contact lens made from Etafilcon A as for L-melamine in Example 2 for 18 hours at ambient temperature in a fume hood. The subsequent experimental details are as described in Example 2, above and viable bacteria was measured.

S. aureus CK5 [5] = experiment: as above; details: 500 μg/lens adsorbed on Etafilcon A lens, vs uncoated control lens
Experimental: as §3, §4

S. aureus CK5 [6] = experiment: MIC in solution (tube/microtitre turbidity); details: MIC, peptide in solution, 18 hours at 35° C.
S. aureus 31 [7] = experiment: Viable counts of bacteria adhered to peptide-adsorbed Etafilcon A lenses; details: 500 μg/lens adsorbed on Etafilcon lens, vs uncoated control lens
Experimental: as §3
(§5) Etafilcon lenses, commercially available from Johnson & Johnson as ACUVUE® Brand contact lenses) were soaked as in Example 2, above, except that the L-melimine concentration was varied: 125 μg, 250 μg or 500 μg/lens. After absorption of L-Melimine onto the hydrogel polymer, the lenses were rehydrated with PBS, and exposed to S. aureus or P. saeruginosa for either 10 minutes or five hours, as described in Example 2. After exposure, the polymer was evaluated for numbers of microorganisms the standard Miles and Misra plate count assay.
as §4
(§6) Contact lenses were coated and dried (as in Example 2) and D-Melimine applied at a concentration of either 250 μg per lens or 500 μg per lens. D-melimine was made using D-amino acids as for L-melimine using standard peptide synthesis techniques (e.g. Fmoc). Assays for measuring inhibition of bacterial adhesion were performed as in Example 2.

P. aeruginosa 6294 [8] = experiment: as above; details: 500 μg/lens adsorbed on Etafilcon lens, vs uncoated control lens
Experimental: as §3, §5, §4, §6

S. aureus = system: S. aureus
Experimental: as §2
(§7) L-Melimine was evaluated to determine its potential to induce resistance in P. aeruginosa and S. aureus. Prior to L-Melimine exposure, MICs of both strains were determined as in Example 1. […] Bacteria were grown overnight in TSB. Bacteria were inoculated 1:100 into fresh TSB containing sub-inhibitory levels of L-Melimine and incubated overnight. Bacteria from the broth containing sub-inhibitory levels (column 2, Table 9) were then re-incubated in fresh TSB with the same concentration of L-Melimine. This was repeated for 30 consecutive days. After passaging, a MIC for the bacteria from the last passage was determined. Any increase in MIC would indicate a potential for bacteria to become resistant.

P. aeruginosa = system: P. aeruginosa
Experimental: as §2, §7

S. aureus 31 [9] = experiment: Heat stability study: inhibition of growth in solution after autoclaving; details: 1000 μg/ml in PBS mixed with equal volume of bacteria
Experimental: (§8) A heat stability study was conducted to evaluate whether post-exposure of the L-Melimine to autoclaving would alter the ability of the peptide to prevent bacterial growth.
(§9) Bacteria (P. aeruginosa 6294 and S. aureus 31) were grown for 18 hours at 35° C. in TSB, then washed twice in PBS. The bacteria were resuspended in PBS to an optical density of 0.1 at 660 nm. L-Melimine was dissolved in PBS to a concentration of 1000 μg/ml and autoclaved at 121° C. for 15 minutes. Equal volumes of bacterial suspension and L-Melimine were then added together and incubated at 35° C. for periods of up to 72 hours. Controls were non-autoclaved L-Melimine. After 24, 48 and 72 hours, aliquots of the bacteria/L-Melimine solutions were removed and the number of viable bacteria were counted using the standard Miles and Misra plate count assay.

P. aeruginosa 6294 [10] = experiment: as above; details: 1000 μg/ml in PBS mixed with equal volume of bacteria
Experimental: as §8, §9

murine L929 cells = experiment: In vitro cytotoxic testing; details: for % cell inhibition: 48 hours
Experimental: as §1

[11] = Autoclaved at 121° C. for 15 minutes
[12] = Treatment None (non-autoclaved)

CC[C@H](C)[C@H](NC(=O)CN)C(=O)NCC(=O)N[C@@H](C)C(=O)N[C@H](C(=O)N[C@@H](CC(C)C)C(=O)N[C@@H](CCCCN)C(=O)N[C@H](C(=O)N[C@@H](CC(C)C)C(=O)N[C@H](C(=O)N[C@H](C(=O)NCC(=O)N[C@@H](CC(C)C)C(=O)N1CCC[C@H]1C(=O)N[C@@H](C)C(=O)N[C@@H](CC(C)C)C(=O)N[C@H](C(=O)N[C@@H](CO)C(=O)N[C@@H](Cc1c[nH]c2ccccc12)C(=O)N[C@H](C(=O)N[C@@H](CCCCN)C(=O)N[C@@H](CCCNC(=N)N)C(=O)N[C@@H](CCCCN)C(=O)N[C@@H](CCCNC(=N)N)C(=O)N[C@@H](CCC(N)=O)C(=O)N[C@@H](CCC(N)=O)C(N)=O)[C@@H](C)CC)[C@@H](C)CC)[C@@H](C)O)[C@@H](C)O)C(C)C)C(C)C [Mellitin]
hemolysis of red blood cells (FIG. 1, % lysis relative to water) (sheep red blood cells): extensive hemolysis | minimum concentration required to inhibit bacterial growth, P.a 6284 (P. aeruginosa 6294 [1]): R (R = resistant, highest concentration of peptide = 1000 ug/Ml) | minimum concentration required to inhibit bacterial growth, S.a. 31 (S. aureus 31 [2]): 15 µg/mL

PRRRRSSSRPVRRRRRPRVSRRRRRRGGRRRR [Protamine, full-length protamine comparison]
minimum concentration required to inhibit bacterial growth, P.a 6284 (P. aeruginosa 6294 [1]): R (R = resistant, highest concentration of peptide = 1000 ug/Ml) | minimum concentration required to inhibit bacterial growth, S.a. 31 (S. aureus 31 [2]): R (R = resistant, highest concentration of peptide = 1000 ug/Ml)

RPRVSRRRRRRGGRRRRTLISWIKNKRKQ (RPRVSRRRRRRGGRRRRTLISWIKNKRKQ) [Prottatin]
minimum concentration required to inhibit bacterial growth, P.a 15442 (P. aeruginosa 15442 [3]): 1000 µg/mL | % reduction at 10 min (P. aeruginosa 15442 [4]): 94 ± 4 (8) % | % reduction at 5 hrs (P. aeruginosa 15442 [4]): 63 ± 32 (7) % | % reduction at 10 min (S. aureus CK5 [5]): 6 ± 62 (7) % | % reduction at 5 hrs (S. aureus CK5 [5]): 3 ± 25 (7) % | minimum concentration required to inhibit bacterial growth, P.a 6284 (P. aeruginosa 6294 [1]): 500 µg/mL | minimum concentration required to inhibit bacterial growth, S.a. CK5 (S. aureus CK5 [6]): 500 µg/mL | % reduction at 10 min (S. aureus 31 [7]): 64 ± 18 (6) % | % reduction at 5 hrs (S. aureus 31 [7]): 43 ± 33 (6) % | % reduction at 10 min (P. aeruginosa 6294 [8]): 97 ± 5 (6) % | % reduction at 5 hrs (P. aeruginosa 6294 [8]): 57 ± 39 (6) % | minimum concentration required to inhibit bacterial growth, S.a. 31 (S. aureus 31 [2]): 1000 µg/mL

RPRVSRRRRRRGGRRRR [Protamine (1-17), 1-17 segment of protamine, segment B]
minimum concentration required to inhibit bacterial growth, P.a 15442 (P. aeruginosa 15442 [3]): R (R = resistant, highest concentration of peptide = 1000 ug/Ml) | minimum concentration required to inhibit bacterial growth, P.a 6284 (P. aeruginosa 6294 [1]): R (R = resistant, highest concentration of peptide = 1000 ug/Ml) | minimum concentration required to inhibit bacterial growth, S.a. CK5 (S. aureus CK5 [6]): 1000 µg/mL | minimum concentration required to inhibit bacterial growth, S.a. 31 (S. aureus 31 [2]): R (R = resistant, highest concentration of peptide = 1000 ug/Ml)

TLISWIKNKRKQ [Mellitin (15-26), 15-26 segment of mellitin, segment A]
minimum concentration required to inhibit bacterial growth, P.a 15442 (P. aeruginosa 15442 [3]): R (R = resistant, highest concentration of peptide = 1000 ug/Ml) | minimum concentration required to inhibit bacterial growth, P.a 6284 (P. aeruginosa 6294 [1]): R (R = resistant, highest concentration of peptide = 1000 ug/Ml) | minimum concentration required to inhibit bacterial growth, S.a. CK5 (S. aureus CK5 [6]): R (R = resistant, highest concentration of peptide = 1000 ug/Ml) | minimum concentration required to inhibit bacterial growth, S.a. 31 (S. aureus 31 [2]): R (R = resistant, highest concentration of peptide = 1000 ug/Ml)

TLISWIKNKRKQRPRVSRRRRRRGGRRRR [Melimine, TLISWIKNKRKQRPRVSRRRRRRGGRRRR]
hemolysis of red blood cells (FIG. 1, % lysis relative to water) (sheep red blood cells): least amount of hemolysis of any peptide/protein | MIC post-passage (S. aureus; after 30 consecutive days passage at 30 μg/ml): 63 µg/mL | MIC prior to passage (S. aureus; procedure of Example 1): 125 µg/mL | MIC post-passage (P. aeruginosa; after 30 consecutive days passage): 4000 µg/mL | MIC prior to passage (P. aeruginosa; starting concentration raised to 15 mg/ml, procedure of Example 1): 4000 µg/mL | % inhibition of growth @ 24 hours (S. aureus 31 [9]; [11]): 100 (3) % | % inhibition of growth @ 48 hours (S. aureus 31 [9]; [11]): 100 (3) % | % inhibition of growth @ 72 hours (S. aureus 31 [9]; [11]): 99 (2) % | % inhibition of growth @ 24 hours (S. aureus 31 [9]; [12]): 100 (5) % | % inhibition of growth @ 48 hours (S. aureus 31 [9]; [12]): 100 (3) % | % inhibition of growth @ 72 hours (S. aureus 31 [9]; [12]): 99 (2) % | % inhibition of growth @ 24 hours (P. aeruginosa 6294 [10]; [11]): 100 (3) % | % inhibition of growth @ 48 hours (P. aeruginosa 6294 [10]; [11]): 100 (3) % | % inhibition of growth @ 72 hours (P. aeruginosa 6294 [10]; [11]): 100 (2) % | % inhibition of growth @ 24 hours (P. aeruginosa 6294 [10]; [12]): 100 (5) % | % inhibition of growth @ 48 hours (P. aeruginosa 6294 [10]; [12]): 100 (3) % | % inhibition of growth @ 72 hours (P. aeruginosa 6294 [10]; [12]): 100 (2) % | % cell inhibition (murine L929 cells; 62.5 μg/ml solution in PBS diluted 1:3 in EMEM): 20% | % cell inhibition (murine L929 cells; 125 μg/ml solution in PBS diluted 1:3 in EMEM): 8% | % cell inhibition (murine L929 cells; 250 μg/ml solution in PBS diluted 1:3 in EMEM): 26% | % cell inhibition (murine L929 cells; 500 μg/ml solution in PBS diluted 1:3 in EMEM): 44% | cytotoxicity (in words) (murine L929 cells; at 500 μg/ml): marginally cytotoxic | cytotoxicity (in words) (murine L929 cells; at all other concentrations (250, 125, 62.5 μg/ml)): non-cytotoxic | MIC, P. aeruginosa resistant up to (P. aeruginosa 6294 [1]; text summary of Table 1, highest concentration used): > 1000 µg/mL
